Source: ChEMBL document CHEMBL5241134, “Discovery of orally bioavailable inhibitors of MALT1 with in vivo activity for psoriasis” (Bioorg Med Chem Lett, 2023)

Tests used:
[1] = molecular target: T1, Mucosa-associated lymphoid tissue lymphoma translocation protein 1 (Homo sapiens, UniProt Q9UDY8); experiment: Inhibition of MALT1 (unknown origin)
T1 sequence (Q9UDY8 whole entry): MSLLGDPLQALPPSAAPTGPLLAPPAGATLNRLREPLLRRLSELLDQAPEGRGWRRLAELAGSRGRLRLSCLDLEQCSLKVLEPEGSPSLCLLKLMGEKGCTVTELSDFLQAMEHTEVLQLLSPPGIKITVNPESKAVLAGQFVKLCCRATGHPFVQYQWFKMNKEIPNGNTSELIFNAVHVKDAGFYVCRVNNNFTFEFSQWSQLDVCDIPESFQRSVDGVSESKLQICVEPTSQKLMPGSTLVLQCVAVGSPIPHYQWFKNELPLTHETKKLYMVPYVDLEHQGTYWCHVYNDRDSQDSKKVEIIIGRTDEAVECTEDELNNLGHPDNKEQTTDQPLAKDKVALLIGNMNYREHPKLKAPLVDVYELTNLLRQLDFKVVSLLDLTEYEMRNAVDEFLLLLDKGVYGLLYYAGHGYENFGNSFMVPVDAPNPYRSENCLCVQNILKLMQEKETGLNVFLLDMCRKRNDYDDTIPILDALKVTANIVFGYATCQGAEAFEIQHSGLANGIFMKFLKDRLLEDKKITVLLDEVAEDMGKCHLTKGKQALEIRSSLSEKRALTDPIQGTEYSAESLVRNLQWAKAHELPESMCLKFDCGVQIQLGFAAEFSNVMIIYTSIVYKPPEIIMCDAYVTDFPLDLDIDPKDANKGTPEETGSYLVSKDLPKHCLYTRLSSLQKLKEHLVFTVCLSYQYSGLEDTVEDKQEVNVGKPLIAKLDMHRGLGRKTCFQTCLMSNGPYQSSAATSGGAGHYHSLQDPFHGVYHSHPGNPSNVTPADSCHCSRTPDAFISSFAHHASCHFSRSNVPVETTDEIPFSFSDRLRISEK

[2] = Inhibition of IL-2 production in PMA/ionomycin stimulated human Jurkat T cells; type: functional, cell-based
[3] = Apparent permeability of the compound in human Caco-2 cells; type: ADME, cell-based
[4] = Drug concentration in BALB/cAnNCrlCr mouse at 1 mg/kg, iv administered as single dose; type: ADME, organism-based; conditions: in vivo
[5] = AUC (0 to infinity) in BALB/cAnNCrlCr mouse at 1 mg/kg, iv administered as single dose; type: ADME, organism-based; set-up: dose 1 mg/kg, route iv; conditions: in vivo
[6] = Half-life in BALB/cAnNCrlCr mouse at 1 mg/kg, iv administered as single dose; type: ADME, organism-based; conditions: in vivo
[7] = Total clearance in BALB/cAnNCrlCr mouse at 1 mg/kg, iv administered as single dose; type: ADME, organism-based; conditions: in vivo
[8] = Cmax in BALB/cAnNCrlCr mouse at 2 mg/kg, po administered as single dose; type: ADME, organism-based; set-up: dose 2 mg/kg, route po; conditions: in vivo
[9] = AUC (0 to infinity) in BALB/cAnNCrlCr mouse at 2 mg/kg, po administered as single dose; type: ADME, organism-based; set-up: dose 2 mg/kg, route po; conditions: in vivo
[10] = Half-life in BALB/cAnNCrlCr mouse at 2 mg/kg, po administered as single dose; type: ADME, organism-based; conditions: in vivo
[11] = Tmax in BALB/cAnNCrlCr mouse at 2 mg/kg, po administered as single dose; type: ADME, organism-based; conditions: in vivo
[12] = Oral bioavailability in BALB/cAnNCrlCr mouse at 2 mg/kg administered as single dose; type: ADME, organism-based; conditions: in vivo

SMILES	IC50 [1]	other results
O=C(NCCc1ccccc1)c1cc(-c2ccc(Cl)cc2)n(-c2ccc(Cl)cc2)n1	> 25000 nM	
N/C(=N\S(=O)(=O)c1cccs1)NCc1cc(-c2ccc(Cl)cc2)n(-c2ccc(Cl)cc2)n1	249 nM	IC50 [2]: 1290 nM
N/C(=N\S(=O)(=O)Cc1ccccc1)NCc1cc(-c2ccc(Cl)cc2)n(-c2ccc(Cl)cc2)n1	774 nM	
N/C(=N\S(=O)(=O)c1ccncc1)NCc1cc(-c2ccc(Cl)cc2)n(-c2ccc(Cl)cc2)n1	562 nM	
CC(C)[C@H](N)C(=O)NCc1cc(-c2ccc(Cl)cc2)n(-c2ccc(Cl)cc2)n1	1850 nM	
O=C(NCc1cc(-c2ccc(Cl)cc2)n(-c2ccc(Cl)cc2)n1)c1ccccc1	> 25000 nM	
NC(=O)NCc1cc(-c2ccc(Cl)cc2)n(-c2ccc(Cl)cc2)n1	1430 nM	
CS(=O)(=O)/N=C(\NCc1ccccc1)NCc1cc(-c2ccc(Cl)cc2)n(-c2ccc(Cl)cc2)n1	31 nM	IC50 [2]: 1100 nM
N#C/N=C(\N)NCc1cc(-c2ccc(Cl)cc2)n(-c2ccc(Cl)cc2)n1	1590 nM	
N/C(=N\S(=O)(=O)C1CC1)NCc1cc(-c2ccc(Cl)cc2)n(-c2ccc(Cl)cc2)n1	258 nM	
CCN/C(=N\S(C)(=O)=O)NCc1cc(-c2ccc(Cl)cc2)n(-c2ccc(Cl)cc2)n1	848 nM	
COc1cccc(S(=O)(=O)/N=C(\N)NCc2cc(-c3ccc(Cl)cc3)n(-c3ccc(Cl)cc3)n2)c1	60 nM	IC50 [2]: 2060 nM
Cn1ccc(S(=O)(=O)/N=C(\N)NCc2cc(-c3ccc(Cl)cc3)n(-c3ccc(Cl)cc3)n2)n1	510 nM	
CN(C)CC(=O)NCc1cc(-c2ccc(Cl)cc2)n(-c2ccc(Cl)cc2)n1	3880 nM	
CC(=O)N[C@H](C(=O)NCc1cc(-c2ccc(Cl)cc2)n(-c2ccc(Cl)cc2)n1)C(C)C	2060 nM	
N/C(=N\S(=O)(=O)c1ccccc1)NCc1cc(-c2ccc(Cl)cc2)n(-c2ccc(Cl)cc2)n1	93 nM	IC50 [2]: 1400 nM; Papp [3]: 3 ×10⁻⁶ cm/s; Drug uptake [4]: 1920 ng/mL; AUC(0-inf) [5]: 5570 ng·h/mL; half-life [6]: 3.37 h; clearance [7]: 3 mL/min/kg; Cmax [8]: 560 ng/mL; AUC(0-inf) [9]: 4450 ng·h/mL; half-life [10]: 4.82 h; Tmax [11]: 2 h; bioavailability [12]: 39.9%
O=C(CCc1ccccc1)NCc1cc(-c2ccc(Cl)cc2)n(-c2ccc(Cl)cc2)n1	262 nM	
CS(=O)(=O)/N=C(\NCc1cccc(Cl)c1)NCc1cc(-c2ccc(Cl)cc2)n(-c2ccc(Cl)cc2)n1	20 nM	
CC(=O)NCc1cc(-c2ccc(Cl)cc2)n(-c2ccc(Cl)cc2)n1	1770 nM	
CS(=O)(=O)/N=C(\NCc1ccccn1)NCc1cc(-c2ccc(Cl)cc2)n(-c2ccc(Cl)cc2)n1	34 nM	
NC(C(=O)NCc1cc(-c2ccc(Cl)cc2)n(-c2ccc(Cl)cc2)n1)c1ccccn1 (configuration not stated)	227 nM	

SMILES	IC50 [1]	other results
CN(C)[C@@H](CO)C(=O)NCc1cc(-c2ccc(Cl)cc2)n(-c2ccc(Cl)cc2)n1	4020 nM	
N[C@H](C(=O)NCc1cc(-c2ccc(Cl)cc2)n(-c2ccc(Cl)cc2)n1)c1ccccc1	53 nM	IC50 [2]: 2660 nM
O=C(NCc1cc(-c2ccc(Cl)cc2)n(-c2ccc(Cl)cc2)n1)C(O)c1ccccc1 (configuration not stated)	159 nM	
CN(C)[C@@H](CO)CNC(=O)c1cc(-c2ccc(Cl)cc2)n(-c2ccc(Cl)cc2)n1	690 nM	
CS(=O)(=O)/N=C(/NCc1cc(-c2ccc(Cl)cc2)n(-c2ccc(Cl)cc2)n1)NCc1cccs1	26 nM	
CC(=O)NC(C(=O)NCc1cc(-c2ccc(Cl)cc2)n(-c2ccc(Cl)cc2)n1)c1ccccn1 (configuration not stated)	56 nM	IC50 [2]: 4170 nM
N[C@@H](C(=O)NCc1cc(-c2ccc(Cl)cc2)n(-c2ccc(Cl)cc2)n1)c1ccccc1	368 nM	
CC(=O)/N=C(\N)NCc1cc(-c2ccc(Cl)cc2)n(-c2ccc(Cl)cc2)n1	1540 nM	
N[C@@H](Cc1ccccc1)C(=O)NCc1cc(-c2ccc(Cl)cc2)n(-c2ccc(Cl)cc2)n1	280 nM	
O=C(Cc1ccccc1)NCc1cc(-c2ccc(Cl)cc2)n(-c2ccc(Cl)cc2)n1	188 nM	
CS(=O)(=O)/N=C(\N)NCc1cc(-c2ccc(Cl)cc2)n(-c2ccc(Cl)cc2)n1	401 nM	
N/C(=N\S(=O)(=O)C1CCCCC1)NCc1cc(-c2ccc(Cl)cc2)n(-c2ccc(Cl)cc2)n1	762 nM	
CC(=O)N[C@H](C(=O)NCc1cc(-c2ccc(Cl)cc2)n(-c2ccc(Cl)cc2)n1)c1ccccc1	42 nM	IC50 [2]: 5020 nM
CS(=O)(=O)NCc1cc(-c2ccc(Cl)cc2)n(-c2ccc(Cl)cc2)n1	2190 nM	
CS(=O)(=O)/N=C(/NCc1cc(-c2ccc(Cl)cc2)n(-c2ccc(Cl)cc2)n1)NCC1CC1	53 nM	IC50 [2]: 1640 nM
CS(=O)(=O)/N=C(/NCc1cc(-c2ccc(Cl)cc2)n(-c2ccc(Cl)cc2)n1)N[C@H](CO)c1ccccc1	45 nM	
CS(=O)(=O)N[C@H](C(=O)NCc1cc(-c2ccc(Cl)cc2)n(-c2ccc(Cl)cc2)n1)c1ccccc1	60 nM	IC50 [2]: > 10000 nM
N/C(=N\S(=O)(=O)c1cccc(F)c1)NCc1cc(-c2ccc(Cl)cc2)n(-c2ccc(Cl)cc2)n1	56 nM	IC50 [2]: 1350 nM
CN(C)[C@H](C(=O)NCc1cc(-c2ccc(Cl)cc2)n(-c2ccc(Cl)cc2)n1)c1ccccc1	53 nM	IC50 [2]: 1720 nM
NC(=O)/N=C(\N)NCc1cc(-c2ccc(Cl)cc2)n(-c2ccc(Cl)cc2)n1	1110 nM	
